Where “and” joins values, the source holds several entries; their conditions need not be identical. Equal entries are not always repeated. Structures can show the parent of a compound that is named as a salt. Where two headings read alike, the source gives them in different places.
What was measured:
DNMT1 = DNMT1 (Homo sapiens, UniProt P26358); assay: DNMT1 biochemical activity, breaklight assay and/or SPA assay
[1] = tested on: erythroid progenitor cells (EPCs); assay: Fetal hemoglobin (HbF) ELISA in day 7 erythroid progenitor cells; format: cell-based, human; settings: Homo sapiens, Erythroid progenitor cell, HbF ELISA, day 7 EPCs, 5 days; read-out: EPC ELISA (pEC50 category) (converted);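 further: for fetal hemoglobin induction normalized to vehicle-treated cells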
Summary of the method: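 CD34+-derived EPCs, 1,000 cells/well, rhEPO 3 U/mL; Compound A 22-pt series, […]; 5 d, 37° C, 5% CO2. Freeze-thaw lysis, anti-HbF capture + HRP anti-HbF, TMB, OD450. Normalized to DMSO wells.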

[2] = binned activity in either the breaklight or the SPA assay
[3] = binned activity in either the breaklight or the SPA assay, read-out: DNMT1 BioChemical (pIC50 category) (converted)
[4] = breaklight assay and/or SPA assay, repeated experimental runs, read-out: average pIC50 against DNMT1 (converted)

DNMT1, sequence (P26358 whole entry, looked up): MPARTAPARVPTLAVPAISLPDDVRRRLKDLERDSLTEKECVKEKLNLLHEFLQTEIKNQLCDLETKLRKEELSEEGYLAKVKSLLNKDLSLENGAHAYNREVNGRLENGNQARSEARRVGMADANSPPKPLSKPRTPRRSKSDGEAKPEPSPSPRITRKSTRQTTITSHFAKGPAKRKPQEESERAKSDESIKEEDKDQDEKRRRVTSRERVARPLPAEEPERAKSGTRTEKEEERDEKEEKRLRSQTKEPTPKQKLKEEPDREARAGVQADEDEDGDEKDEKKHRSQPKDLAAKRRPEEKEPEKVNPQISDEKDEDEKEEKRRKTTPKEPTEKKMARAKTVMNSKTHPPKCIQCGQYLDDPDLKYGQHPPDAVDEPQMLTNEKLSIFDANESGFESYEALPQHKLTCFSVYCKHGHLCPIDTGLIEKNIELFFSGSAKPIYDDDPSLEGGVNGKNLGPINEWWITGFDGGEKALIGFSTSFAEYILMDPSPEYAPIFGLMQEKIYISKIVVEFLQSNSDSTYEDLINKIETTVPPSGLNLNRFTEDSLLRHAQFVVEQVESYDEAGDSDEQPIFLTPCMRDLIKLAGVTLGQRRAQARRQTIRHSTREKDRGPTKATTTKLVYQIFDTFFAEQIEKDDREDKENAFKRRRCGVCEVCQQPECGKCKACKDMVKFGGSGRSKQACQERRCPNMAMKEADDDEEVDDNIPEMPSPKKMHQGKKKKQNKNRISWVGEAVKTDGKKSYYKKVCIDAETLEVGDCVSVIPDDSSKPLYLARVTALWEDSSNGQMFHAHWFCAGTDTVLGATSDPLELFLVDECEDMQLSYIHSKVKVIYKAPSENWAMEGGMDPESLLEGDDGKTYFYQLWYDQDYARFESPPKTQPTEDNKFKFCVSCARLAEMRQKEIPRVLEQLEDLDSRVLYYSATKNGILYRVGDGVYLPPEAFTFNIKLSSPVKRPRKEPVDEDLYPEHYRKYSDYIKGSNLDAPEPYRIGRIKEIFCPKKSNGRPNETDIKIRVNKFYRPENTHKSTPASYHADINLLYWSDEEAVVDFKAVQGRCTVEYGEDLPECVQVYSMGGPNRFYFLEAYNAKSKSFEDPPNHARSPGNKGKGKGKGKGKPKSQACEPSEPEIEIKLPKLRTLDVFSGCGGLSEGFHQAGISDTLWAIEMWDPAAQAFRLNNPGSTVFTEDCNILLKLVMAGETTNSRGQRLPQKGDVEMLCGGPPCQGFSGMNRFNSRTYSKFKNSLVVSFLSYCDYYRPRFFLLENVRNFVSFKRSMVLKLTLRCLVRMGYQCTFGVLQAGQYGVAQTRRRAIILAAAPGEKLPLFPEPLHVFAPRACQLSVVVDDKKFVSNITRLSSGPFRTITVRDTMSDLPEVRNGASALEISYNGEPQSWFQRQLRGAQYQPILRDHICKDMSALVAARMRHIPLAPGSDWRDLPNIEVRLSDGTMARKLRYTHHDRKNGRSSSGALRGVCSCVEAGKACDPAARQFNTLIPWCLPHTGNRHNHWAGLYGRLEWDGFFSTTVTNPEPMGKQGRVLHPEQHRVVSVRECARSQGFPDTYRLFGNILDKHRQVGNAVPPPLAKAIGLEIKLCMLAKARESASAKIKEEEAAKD

| DNMT1 BioChemical (pIC50 category) (DNMT1; [2]) | EC50 [1] | IC50 (DNMT1; [3]) | IC50 (DNMT1; [4]) | average pIC50 against DNMT1 (DNMT1; breaklight assay and/or SPA assay, repeated experimental runs) | SMILES |
| --- | --- | --- | --- | --- | --- |
| D (Category D: ≥6.5) | < 0.316 µM | – | – | – | CCc1c(C#N)c(SC(C(N)=O)c2ccccc2)nc(N2CCC(N3CC[C@@H](F)C3)CC2)c1C#N (stereo partly drawn) [Example 460, 2-((3,5-dicyano-4-ethyl-6-(4-((R)-3-fluoropyrrolidin-1-yl)piperidin-1-yl)pyridin-2-yl)thio)-2-phenylacetamide] |
| D (Category D: ≥6.5) | 0.316 to 1 µM | – | – | – | CCc1c(C#N)c(SC(C(N)=O)c2ccccc2)nc(N2CC[C@@H](N(C)C)C2)c1C#N (stereo partly drawn) [Example 536, 2-((3,5-dicyano-6-((R)-3-(dimethylamino)pyrrolidin-1-yl)-4-ethylpyridin-2-yl)thio)-2-phenylacetamide] |
| D (Category D: ≥6.5) | < 0.316 µM | – | – | – | CCc1c(C#N)c(SC(C(N)=O)c2ccccc2)nc(N2CCC(NC)C(F)C2)c1C#N (stereo not drawn) [Example 507, 2((3,5-dicyano-4-ethyl-6-(3-fluoro-4-(methylamino)piperidin-1-yl)pyridin-2-yl)thio)-2-phenylacetamide] |
| – | 0.316 to 1 µM | 1 to 31.6 µM | – | – | CCc1c(C#N)c(S[C@H](C(N)=O)c2ccccc2)nc(N2CC[C@H](O)C2)c1C#N [Example 320, (S)-2-((3,5-Dicyano-4-ethyl-6-((S)-3-hydroxypyrrolidin-1-yl)pyridin-2-yl)thio)-2-phenylacetamide] |
| D (Category D: ≥6.5) | < 0.316 µM | – | – | – | CCc1c(C#N)c(SC(C(N)=O)c2ccccc2)nc(N2CCC[C@H](N)C2)c1C#N (stereo partly drawn) [Example 612, 2-((6-((S)-3-aminopiperidin-1-yl)-3,5-dicyano-4-ethylpyridin-2-yl)thio)-2-phenylacetamide] |
| D (Category D: ≥6.5) | < 0.316 µM | – | – | – | CCc1c(C#N)c(SC(C(N)=O)c2ccccc2)nc(N2CCC(NCC(C)(C)C)CC2)c1C#N (stereo not drawn) [Example 550, 2-((3,5-dicyano-4-ethyl-6-(4-(neopentylamino)piperidin-1-yl)pyridin-2-yl)thio)-2-phenylacetamide] |
| D (Category D: ≥6.5) | 0.316 to 1 µM | – | – | – | CCc1c(C#N)c(SC(C(N)=O)c2ccccc2)nc(N2CCC(NC(=O)OC(C)(C)C)C(F)(F)C2)c1C#N (stereo not drawn) [Example 383, tert-Butyl (1-(6-((2-amino-2-oxo-1-phenylethyl)thio)-3,5-dicyano-4-ethylpyridin-2-yl)-3,3-difluoropiperidin-4-yl) carbamate] |
| D (Category D: ≥6.5) | > 31.6 µM | – | – | – | CCc1c(C#N)c(SC(C(N)=O)c2ccccc2)nc(N2Cc3cn[nH]c3C2)c1C#N (stereo not drawn) [Example 236, 2-((3,5-Dicyano-4-ethyl-6-(pyrrolo[3,4-c]pyrazol-5(1H,4H,6H)-yl)pyridin-2-yl)thio)-2-phenylacetamide] |
| D (Category D: ≥6.5) | < 0.316 µM | – | – | – | CCc1c(C#N)c(SC(C(N)=O)c2ccccc2)nc(N2CCC(NCC3(C)COC3)CC2)c1C#N (stereo not drawn) [Example 449, 2-((3,5-dicyano-4-ethyl-6-(4-(((3-methyloxetan-3-yl)methyl)amino)piperidin-1-yl)pyridin-2-yl)thio)-2-phenylacetamide] |
| D (Category D: ≥6.5) | < 0.316 µM | – | – | – | CCc1c(C#N)c(SC(C(N)=O)c2ccccc2)nc(N(C)CCN2CC[C@@H](O)C2)c1C#N (stereo partly drawn) [Example 494, 2-(3,5-dicyano-4-ethyl-6-((2-((R)-3-hydroxypyrrolidin-1-yl)ethyl)(methyl)amino)pyridin-2-ylthio)-2-phenylacetamide] |
| – | 1 to 31.6 µM | 0.316 to 1 µM | – | – | CCc1c(C#N)c(SC(C(N)=O)c2ccccc2)nc(N2CC(OC)C2)c1C#N (stereo not drawn) [Example 54, 2-((3,5-Dicyano-4-ethyl-6-(3-methoxyazetidin-1-yl)pyridin-2-yl)thio)-2-phenylacetamide] |
| D (Category D: ≥6.5) | < 0.316 µM | – | – | – | CCc1c(C#N)c(SC(C(N)=O)c2ccccc2)nc(N2CCC[C@H](NC3CC3)C2)c1C#N (stereo partly drawn) [Example 684, 2-((3,5-dicyano-6-((S)-3-(cyclopropylamino)piperidin-1-yl)-4-ethylpyridin-2-yl)thio)-2-phenylacetamide] |
| D (Category D: ≥6.5) | 0.316 to 1 µM | – | – | – | CCc1c(C#N)c(SC(C(N)=O)c2ccccc2)nc(N(C)CC(=O)N2C[C@@H](O)[C@@H](O)C2)c1C#N (stereo partly drawn) [Example 647, 2-((3,5-dicyano-6-((2-((cis)-3,4-dihydroxypyrrolidin-1-yl)-2-oxoethyl)(methyl)amino)-4-ethylpyridin-2-yl)thio)-2-phenylacetamide] |
| – | 0.316 to 1 µM | 0.316 to 1 µM | 0.316 to 1 µM and 0.631 µM | – | CCc1c(C#N)c(SC(C(N)=O)c2ccccc2)nc(N2CC3CC2CN3C)c1C#N (stereo not drawn) [Example 303, 2-((3,5-Dicyano-4-ethyl-6-(5-methyl-2,5-diazabicyclo[2.2.1]heptan-2-yl)pyridin-2-yl)thio)-2-phenylacetamide] |
| – | 0.316 to 1 µM | 0.316 to 1 µM | – | – | CCc1c(C#N)c(SC(C(N)=O)c2ccccc2)nc(N2CCC(OC3COC3)CC2)c1C#N (stereo not drawn) [Example 231, 2-((3,5-Dicyano-4-ethyl-6-(4-(oxetan-3-yloxy)piperidin-1-yl)pyridin-2-yl)thio)-2-phenylacetamide] |

Second part, the molecule before the results:

| SMILES | DNMT1 BioChemical (pIC50 category) (DNMT1; [2]) | EC50 [1] | IC50 (DNMT1; [3]) | IC50 (DNMT1; [4]) | average pIC50 against DNMT1 (DNMT1; breaklight assay and/or SPA assay, repeated experimental runs) |
| --- | --- | --- | --- | --- | --- |
| CCc1c(C#N)c(SC(C(N)=O)c2ccc(C(F)(F)F)cc2)nc(N2CCC(NCC(C)(C)C)CC2)c1C#N (stereo not drawn) [Example 532, 2-((3,5-dicyano-4-ethyl-6-(4-(neopentylamino)piperidin-1-yl)pyridin-2-yl)thio)-2-(4-(trifluoromethyl)phenyl)acetamide] | D (Category D: ≥6.5) | < 0.316 µM | – | – | – |
| CCc1c(C#N)c(SC(C(N)=O)c2ccccc2)nc(N(C)CCONC(=N)N)c1C#N (stereo not drawn) [Example 644, 2-((3,5-dicyano-4-ethyl-6-((2-(guanidinooxy)ethyl)(methyl)amino)pyridin-2-yl)thio)-2-phenylacetamide] | D (Category D: ≥6.5) | 1 to 31.6 µM | – | – | – |
| CCc1c(C#N)c(SC(C(N)=O)c2ccccc2)nc(N(C)CC(=O)NCCN)c1C#N (stereo not drawn) [Example 630, 2-((6-((2-amino-2-oxo-1-phenylethyl)thio)-3,5-dicyano-4-ethylpyridin-2-yl)(methyl)amino)-N-(2-aminoethyl)acetamide hydrochloride] | D (Category D: ≥6.5) | < 0.316 µM | – | – | – |
| CCc1c(C#N)c(SCc2ccc(CNC(C)=O)cc2)nc(N(C)CCO)c1C#N [Example 103, N-(4-(((3,5-Dicyano-4-ethyl-6-((2-hydroxyethyl)(methyl)amino)pyridin-2-yl)thio)methyl)benzyl)acetamide] | – | 1 to 31.6 µM | 1 to 31.6 µM | ≥ 1 µM | – |
| CCc1c(C#N)c(SC(C(N)=O)c2ccccc2)nc(N2CCC(O)(CN)CC2)c1C#N (stereo not drawn) [Example 243, 2-((6-(4-(Aminomethyl)-4-hydroxypiperidin-1-yl)-3,5-dicyano-4-ethylpyridin-2-yl)thio)-2-phenylacetamide, Trifluoroacetic Acid Salt] | D (Category D: ≥6.5) | 0.316 to 1 µM | – | – | – |
| CNC1CCCN(c2nc(SC(C(N)=O)c3ccccc3)c(C#N)c(C3CC3)c2C#N)C1 (stereo not drawn) [Example 24, 2-((3,5-dicyano-4-cyclopropyl-6-(3-(methylamino)piperidin-1-yl)pyridin-2-yl)thio)-2-phenylacetamide] | D (Category D: ≥6.5) | < 0.316 µM | – | – | – |
| CCc1c(C#N)c(SC(C(N)=O)c2ccccc2)nc(N(C)CC(=O)N2CCC(O)CC2)c1C#N (stereo not drawn) [Example 621, 2-((3,5-dicyano-4-ethyl-6-((2-(4-hydroxypiperidin-1-yl)-2-oxoethyl)(methyl)amino)pyridin-2-yl)thio)-2-phenylacetamide] | D (Category D: ≥6.5) | < 0.316 µM | – | – | – |
| CCc1c(C#N)c(SCc2ccc(CNC(=O)CN)cc2)nc(N2CCCN(C)CC2)c1C#N [Example 80, 2-Amino-N-(4-(((3,5-dicyano-4-ethyl-6-(4-methyl-1,4-diazepan-1-yl)pyridin-2-yl)thio)methyl)benzyl)acetamide] | D (Category D: ≥6.5) | 0.316 to 1 µM | – | – | > 6.5 |
| CCc1c(C#N)c(SC(C(N)=O)c2ccccc2)nc(N(C)CC(=O)N2C[C@@H](CO)[C@@H](O)C2)c1C#N (stereo partly drawn) [Example 637, 2-((3,5-dicyano-4-ethyl-6-((2-((3R,4S)-3-hydroxy-4-(hydroxymethyl)pyrrolidin-1-yl)-2-oxoethyl)(methyl)amino)pyridin-2-yl)thio)-2-phenylacetamide] | D (Category D: ≥6.5) | 1 to 31.6 µM | – | – | – |
| CCc1c(C#N)c(SCc2ccc(NC(C)=O)cc2)nc(N2CCCN(C)CC2)c1C#N [Example 298, N-(4-(((3,5-Dicyano-4-ethyl-6-(4-methyl-1,4-diazepan-1-yl)pyridin-2-yl)thio)methyl)phenyl)acetamide] | D (Category D: ≥6.5) | < 0.316 µM | – | – | – |
| CCc1c(C#N)c(SC(C(N)=O)c2ccccn2)nc(N2CC[C@H](O)C2)c1C#N (stereo partly drawn) [Example 322, 2-((3,5-Dicyano-4-ethyl-6-((S)-3-hydroxypyrrolidin-1-yl)pyridin-2-yl)thio)-2-(pyridin-2-yl)acetamide] | D (Category D: ≥6.5) | 0.316 to 1 µM | – | – | – |
| CCc1c(C#N)c(S[C@@H](C(N)=O)c2ccc(F)cc2F)nc(N2CC[C@H](O)C2)c1C#N [Example 674, (R)-2-((3,5-dicyano-4-ethyl-6-((S)-3-hydroxypyrrolidin-1-yl)pyridin-2-yl)thio)-2-(2,4-difluorophenyl)acetamide] | D (Category D: ≥6.5) | 1 to 31.6 µM | – | – | – |

From patent US10975056B2 (GlaxoSmithKline Intellectual Property Development Limited, priority 2016, dated 2021)
